In ChEMBL document CHEMBL5131484, “Design and synthesis of adamantane-1-carbonyl thiourea derivatives as potent and selective inhibitors of h-P2X4 and h-P2X7 receptors: An Emerging therapeutic tool for treatment of inflammation and neurological disorders” (Eur J Med Chem, 2022):

Tests used:
[1] = Cytotoxicity against human 1321N1 cells assessed as reduction in cell viability at 50 uM incubated for 24 hrs by MTT assay relative to control; assay type: functional
[2] = Cytotoxicity against human HEK293 cells assessed as reduction in cell viability at 50 uM incubated for 24 hrs by MTT assay relative to control; assay type: toxicity, cell-based; conditions: read-out: INH
HeLa = assay: Cytotoxicity against human HeLa cells assessed as reduction in cell viability at 50 uM incubated for 24 hrs by MTT assay relative to control; assay type: functional
[3] = target: T1, P2X purinoceptor 4 (Homo sapiens) (UniProt Q99571); assay: Negative allosteric modulation activity at human P2X4 receptor expressed in human 1321N1 cells assessed as ATP induced calcium response by measuring maximal ATP efficacy at 40 nM relative to control; assay type: cell-based; conditions: filed as negative allosteric modulator
T1 sequence (whole entry): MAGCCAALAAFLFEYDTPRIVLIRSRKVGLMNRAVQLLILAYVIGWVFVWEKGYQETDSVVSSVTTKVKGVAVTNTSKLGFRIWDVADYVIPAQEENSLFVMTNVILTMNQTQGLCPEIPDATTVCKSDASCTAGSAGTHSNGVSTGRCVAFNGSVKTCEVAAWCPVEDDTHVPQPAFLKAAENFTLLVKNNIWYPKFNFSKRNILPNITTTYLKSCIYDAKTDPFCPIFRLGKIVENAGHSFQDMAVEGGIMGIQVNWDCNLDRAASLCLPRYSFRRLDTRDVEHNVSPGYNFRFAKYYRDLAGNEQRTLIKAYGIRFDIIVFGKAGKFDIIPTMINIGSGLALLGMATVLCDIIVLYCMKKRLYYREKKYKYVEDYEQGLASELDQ

[4] = target: T1, P2X purinoceptor 4 (Homo sapiens); assay: Negative allosteric modulation activity at human P2X4 receptor expressed in human 1321N1 cells assessed as ATP induced calcium response by measuring maximal ATP efficacy at 100 nM relative to control; assay type: cell-based; conditions: filed as negative allosteric modulator
[5] = target: T1, P2X purinoceptor 4 (Homo sapiens); assay: Negative allosteric modulation activity at human P2X4 receptor expressed in human 1321N1 cells assessed as ATP induced calcium response by measuring maximal ATP efficacy at 200 nM relative to control; assay type: cell-based
[6] = target: T2, P2X purinoceptor 2 (Homo sapiens) (UniProt Q9UBL9); assay: Negative allosteric modulation activity at human P2X2 receptor expressed in human 1321N1 cells assessed as reduction in intracellular Ca2+ influx incubated for 30 mins by Fura-2 AM based fluorescence assay relative to control; assay type: cell-based
T2 sequence (whole entry): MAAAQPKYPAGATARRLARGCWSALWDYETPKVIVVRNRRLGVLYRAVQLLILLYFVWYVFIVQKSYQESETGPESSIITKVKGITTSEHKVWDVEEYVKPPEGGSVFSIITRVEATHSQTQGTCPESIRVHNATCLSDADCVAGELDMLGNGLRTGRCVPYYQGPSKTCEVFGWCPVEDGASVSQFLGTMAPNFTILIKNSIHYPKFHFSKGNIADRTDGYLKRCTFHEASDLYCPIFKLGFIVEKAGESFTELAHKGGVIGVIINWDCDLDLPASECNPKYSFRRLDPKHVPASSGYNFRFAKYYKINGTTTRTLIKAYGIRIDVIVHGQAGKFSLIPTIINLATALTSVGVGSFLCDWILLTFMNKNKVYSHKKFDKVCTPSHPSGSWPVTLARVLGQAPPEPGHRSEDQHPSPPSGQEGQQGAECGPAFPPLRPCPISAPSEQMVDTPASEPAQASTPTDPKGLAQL

P2X purinoceptor 5 = P2X purinoceptor 5 (Homo sapiens, UniProt Q93086); assay: Negative allosteric modulation activity at human P2X5 receptor expressed in human 1321N1 cells assessed as reduction in intracellular Ca2+ influx incubated for 30 mins by Fura-2 AM based fluorescence assay relative to control; assay type: cell-based
P2X purinoceptor 7 = target: T3, P2X purinoceptor 7 (Homo sapiens, UniProt Q99572); assay: Negative allosteric modulation activity at human P2X7 receptor expressed in human 1321N1 cells assessed as reduction in intracellular Ca2+ influx incubated for 30 mins by Fura-2 AM based fluorescence assay; assay type: cell-based
T3 sequence (Q99572 whole entry): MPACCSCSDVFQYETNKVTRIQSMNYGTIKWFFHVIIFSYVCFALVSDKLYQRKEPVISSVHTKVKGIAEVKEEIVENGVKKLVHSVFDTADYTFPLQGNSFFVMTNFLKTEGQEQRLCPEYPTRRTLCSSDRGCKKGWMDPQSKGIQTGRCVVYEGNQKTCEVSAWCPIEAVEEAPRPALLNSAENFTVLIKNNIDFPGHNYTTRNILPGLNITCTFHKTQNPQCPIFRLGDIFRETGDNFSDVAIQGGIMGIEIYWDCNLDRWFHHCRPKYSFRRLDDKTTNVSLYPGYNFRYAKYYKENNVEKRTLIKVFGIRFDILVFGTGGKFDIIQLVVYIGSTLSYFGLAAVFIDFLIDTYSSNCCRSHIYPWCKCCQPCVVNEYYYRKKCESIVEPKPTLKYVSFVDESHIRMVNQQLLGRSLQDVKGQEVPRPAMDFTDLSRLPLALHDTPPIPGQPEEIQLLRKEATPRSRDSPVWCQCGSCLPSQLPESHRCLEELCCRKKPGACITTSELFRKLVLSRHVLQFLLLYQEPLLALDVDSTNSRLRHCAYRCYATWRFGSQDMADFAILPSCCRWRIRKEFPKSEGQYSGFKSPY

Chain of P2X purinoceptor 5 (Q93086 whole entry): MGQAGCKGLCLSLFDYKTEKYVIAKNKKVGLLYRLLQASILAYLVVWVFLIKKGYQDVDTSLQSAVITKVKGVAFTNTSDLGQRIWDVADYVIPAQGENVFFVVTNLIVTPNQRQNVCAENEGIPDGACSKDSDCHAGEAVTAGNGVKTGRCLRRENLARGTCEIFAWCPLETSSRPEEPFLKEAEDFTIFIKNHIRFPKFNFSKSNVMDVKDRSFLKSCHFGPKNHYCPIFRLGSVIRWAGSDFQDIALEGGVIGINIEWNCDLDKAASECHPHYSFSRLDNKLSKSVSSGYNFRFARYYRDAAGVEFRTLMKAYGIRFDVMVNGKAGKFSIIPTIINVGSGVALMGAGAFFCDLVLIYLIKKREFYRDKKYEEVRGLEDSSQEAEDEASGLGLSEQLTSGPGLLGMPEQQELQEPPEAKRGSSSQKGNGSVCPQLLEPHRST

## CC(C)c1ccc(NC(=S)NC(=O)C23CC4CC(CC(C4)C2)C3)c(Br)c1
[1]
  inhibition at 50 µM: 9.26%
[2]
  cytotoxicity at 24 h, 50 µM: 4.28%
HeLa
  inhibition at 50 µM: 6.54%
[3]
  Emax: 68%
[4]
  Emax: 45%
[5]
  Emax: 32%
[6]
  inhibition: 30%
P2X purinoceptor 5
  inhibition: 12%
P2X purinoceptor 7
  IC50: 25.2 µM
